Columns and labels:
[1] = molecular target: soluble human BACE1 catalytic domain (Homo sapiens (Human), UniProt P56817); experiment: BACE1 HTRF FRET Assay; assay type: biochemical; details: Ki calculated from IC50 using the Cheng-Prusoff equation; QSY7-APPswe-Eu substrate, pH 5.0; read-out: BACE-1 Ki
Description: • Reagents: Na^+-Acetate pH 5.0; 1% Brij-35; Glycerol; Dimethyl Sulfoxide (DMSO); Recombinant human soluble BACE1 catalytic domain (>95% pure); APP Swedish mutant peptide substrate (QSY7-APP^swe-Eu): QSY7-EISEVNLDAEFC-Europium-amide.
A homogeneous time-resolved FRET assay can be used to determine IC50 values for inhibitors of the soluble human BACE1 catalytic domain. This assay monitors the increase of 620 nm fluorescence that resulted from BACE1 cleavage of an APPswedish APP^swe mutant peptide FRET substrate (QSY7-EISEVNLDAEFC-Europium-amide). This substrate contains an N-terminal QSY7 moiety that serves as a quencher of the C-terminal Europium fluorophore (620 nm Em). In the absence of enzyme activity, 620 nm fluorescence is low in the assay and increased linearly over 3 hours in the presence of uninhibited BACE1 enzyme. Inhibition of BACE1 cleavage of the QSY7-APP^swe-Eu substrate by inhibitors is manifested as a suppression of 620 nm fluorescence.
Varying concentrations of inhibitors at 3× the final desired concentration in a volume of 10 ul are preincubated with purified human BACE1 catalytic domain (3 nM in 10 μl) for 30 minutes at 30° C. in reaction buffer containing 20 mM Na-Acetate pH 5.0, 10% glycerol, 0.1% Brij-35 and 7.5% DSMO. Reactions are initiated by addition of 10 μl of 600 nM QSY7-APP^swe-Eu substrate (200 nM final) to give a final reaction volume of 30 μl in a 384 well Nunc HTRF plate. The reactions are incubated at 30° C. for 1.5 hours. The 620 nm fluorescence is then read on a Rubystar HTRF plate reader (BMG Labtechnologies) using a 50 millisecond delay followed by a 400 millisecond acquisition time window. Inhibitor IC50 values are derived from non-linear regression analysis of concentration response curves. Ki values are then calculated from IC50 values using the Cheng-Prusoff equation using a previously determined m value of […] for the QSY7-APP^swe-Eu substrate at BACE1.

[2] = molecular target: purified human autoBACE-2 (Homo sapiens (Human), UniProt Q9Y5Z0); experiment: BACE-2 Assay (BACE-HTRF assay); assay type: biochemical; details: Ki calculated from IC50 using the Cheng-Prusoff equation; QSY7-EISEVNLDAEFC-Eu-amide substrate, pH 5.0
Protocol: Inhibitor IC50s at purified human autoBACE-2 are determined in a time-resolved endpoint proteolysis assay that measures hydrolysis of the QSY7-EISEVNLDAEFC-Eu-amide FRET peptide substrate (BACE-HTRF assay). BACE-mediated hydrolysis of this peptide results in an increase in relative fluorescence (RFU) at 620 nm after excitation with 320 nm light. Inhibitor compounds, prepared at 3× the desired final concentration in 1×BACE assay buffer (20 mM sodium acetate pH 5.0, 10% glycerol, 0.1% Brij-35) supplemented with 7.5% DMSO are preincubated with an equal volume of autoBACE-2 enzyme diluted in 1×BACE assay buffer (final enzyme concentration 1 nM) in black 384-well NUNC plates for 30 minutes at 30° C. […] DMSO is present at 5% final concentration in the assay. Following laser excitation of sample wells at 320 nm, the fluorescence signal at 620 nm is collected for 400 ms following a […] on a RUBYstar HTRF plate reader (BMG Labtechnologies). Raw RFU data is normalized to maximum (1.0 nM BACE/DMSO) and minimum (no enzyme/DMSO) RFU values. IC50s are determined by nonlinear regression analysis (sigmoidal dose response, variable slope) of percent inhibition data with minimum and maximum values set to 0 and 100 percent respectively. Similar IC50s are obtained when using raw RFU data. The Ki values are calculated from the IC50 using the Cheng-Prusoff equation.

Chain of purified human autoBACE-2 (Q9Y5Z0 63-473): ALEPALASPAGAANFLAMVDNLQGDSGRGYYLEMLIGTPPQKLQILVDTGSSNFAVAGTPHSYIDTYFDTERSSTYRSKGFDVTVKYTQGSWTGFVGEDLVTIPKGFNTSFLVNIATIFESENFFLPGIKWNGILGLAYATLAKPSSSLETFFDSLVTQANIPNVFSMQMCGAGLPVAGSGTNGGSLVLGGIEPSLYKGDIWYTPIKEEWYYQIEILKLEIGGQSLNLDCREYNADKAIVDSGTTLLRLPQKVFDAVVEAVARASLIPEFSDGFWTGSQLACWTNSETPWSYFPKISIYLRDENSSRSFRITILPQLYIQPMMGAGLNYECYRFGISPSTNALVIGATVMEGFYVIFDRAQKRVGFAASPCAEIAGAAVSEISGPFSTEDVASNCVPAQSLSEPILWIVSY
Chain of soluble human BACE1 catalytic domain (P56817 75-416): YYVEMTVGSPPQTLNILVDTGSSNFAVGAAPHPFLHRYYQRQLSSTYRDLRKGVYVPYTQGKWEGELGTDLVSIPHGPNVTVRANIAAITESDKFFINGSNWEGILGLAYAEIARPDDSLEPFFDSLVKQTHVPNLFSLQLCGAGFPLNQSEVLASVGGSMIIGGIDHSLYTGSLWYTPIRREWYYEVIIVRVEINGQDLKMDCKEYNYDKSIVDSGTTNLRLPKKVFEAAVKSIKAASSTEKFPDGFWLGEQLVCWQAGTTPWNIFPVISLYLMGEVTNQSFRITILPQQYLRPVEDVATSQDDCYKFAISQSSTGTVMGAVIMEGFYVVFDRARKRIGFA

SMILES	Ki [1] [nM]	Ki [2] [nM]
C[C@H]1C[C@@H]2[C@](c3cc(Oc4cc(C#N)ccn4)ccc3F)(CO1)NC(=N)N(C)S2(=O)=O [Example 3, 2-(4-fluoro-3-((4aS,7S,8aR)-3-imino-2,7-dimethyl-1,1-dioxidooctahydropyrano[3,4-e][1,2,4]thiadiazin-4a-yl)phenoxy)isonicotinonitrile]	2.7	2.3
C[C@H]1C[C@@H]2[C@](c3cc(Oc4ncccc4F)ccc3F)(CO1)NC(=N)N(C)S2(=O)=O [Example 1, (4aS,7S,8aR)-4a-(2-fluoro-5-((3-fluoropyridin-2-yl)oxy)phenyl)-3-imino-2,7-dimethyloctahydropyrano[3,4-e][1,2,4]thiadiazine 1,1-dioxide]	3.4	1.6
COC[C@H]1C[C@@H]2[C@](c3cc(Oc4cncc(OC)n4)ccc3F)(CO1)NC(=N)N(C)S2(=O)=O [Example 9, (4aS,7R,8aR)-4a-(2-fluoro-5-((6-methoxypyrazin-2-yl)oxy)phenyl)-3-imino-7-(methoxymethyl)-2-methyloctahydropyrano[3,4-e][1,2,4]thiadiazine 1,1-dioxide]	4.6	9.4
C[C@H]1C[C@@H]2[C@](c3cc(Oc4ncncc4F)ccc3F)(CO1)NC(=N)N(C)S2(=O)=O [Example 4, (4aS,7S,8aR)-4a-(2-fluoro-5-((5-fluoropyrimidin-4-yl)oxy)phenyl)-3-imino-2,7-dimethyloctahydropyrano[3,4-e][1,2,4]thiadiazine 1,1-dioxide]	12	5.9
C[C@H]1C[C@@H]2[C@](c3cc(Oc4ncc(F)cc4F)ccc3F)(CO1)NC(=N)N(C)S2(=O)=O [Example 5, (4aS,7S,8aR)-4a-(5-((3,5-difluoropyridin-2-yl)oxy)-2-fluorophenyl)-3-imino-2,7-dimethyloctahydropyrano[3,4-e][1,2,4]thiadiazine 1,1-dioxide]	25	13
C[C@H]1C[C@@H]2[C@](c3cc(Oc4cc(F)cnc4F)ccc3F)(CO1)NC(=N)N(C)S2(=O)=O [Example 6, (4aS,7S,8aR)-4a-(5-((2,5-difluoropyridin-3-yl)oxy)-2-fluorophenyl)-3-imino-2,7-dimethyloctahydropyrano[3,4-e][1,2,4]thiadiazine 1,1-dioxide]	7.1	15
C[C@H]1C[C@@H]2[C@](c3cc(OCC4CC4)ccc3F)(CO1)NC(=N)N(C)S2(=O)=O [Example 7, (4aS,7S,8aR)-4a-(5-(cyclopropylmethoxy)-2-fluorophenyl)-3-imino-2,7-dimethyloctahydropyrano[3,4-e][1,2,4]thiadiazine 1,1-dioxide]	28	4.3
C[C@H]1C[C@@H]2[C@](c3cc(OCC45CC(C#N)(C4)C5)ccc3F)(CO1)NC(=N)N(C)S2(=O)=O [Example 8, 3-((4-fluoro-3-((4aS,7S,8aR)-3-imino-2,7-dimethyl-1,1-dioxidooctahydropyrano[3,4-e][1,2,4]thiadiazin-4a-yl)phenoxy)methyl)bicyclo[1.1.1]pentane-1-carbonitrile]	9.1	28

Other lines, results leading:

Ki [1] [nM]	Ki [2] [nM]	SMILES
39	52	COC[C@H]1C[C@@H]2[C@](c3cc(Oc4cccnc4)ccc3F)(CO1)NC(=N)N(C)S2(=O)=O [Example 16, (4aS,7R,8aR)-4a-(2-fluoro-5-(pyridin-3-yloxy)phenyl)-3-imino-7-(methoxymethyl)-2-methyloctahydropyrano[3,4-e][1,2,4]thiadiazine 1,1-dioxide]
7.9	2	COC[C@H]1C[C@@H]2[C@](c3cc(OCC4CC4)ccc3F)(CO1)NC(=N)N(C)S2(=O)=O [Example 14, (4aS,7R,8aR)-4a-(5-(cyclopropylmethoxy)-2-fluorophenyl)-3-imino-7-(methoxymethyl)-2-methyloctahydropyrano[3,4-e][1,2,4]thiadiazine 1,1-dioxide]
9.1	28	COC[C@H]1C[C@@H]2[C@](c3cc(OCC45CC(C#N)(C4)C5)ccc3F)(CO1)NC(=N)N(C)S2(=O)=O [Example 15, 3-((4-fluoro-3-((4aS,7R,8aR)-3-imino-7-(methoxymethyl)-2-methyl-1,1-dioxidooctahydropyrano[3,4-e][1,2,4]thiadiazin-4a-yl)phenoxy)methyl)bicyclo[1.1.1]pentane-1-carbonitrile]
2.1	10	COC[C@H]1C[C@@H]2[C@](c3cc(Oc4cc(F)cnc4F)ccc3F)(CO1)NC(=N)N(C)S2(=O)=O [Example 13, (4aS,7R,8aR)-4a-(5-((2,5-difluoropyridin-3-yl)oxy)-2-fluorophenyl)-3-imino-7-(methoxymethyl)-2-methyloctahydropyrano[3,4-e][1,2,4]thiadiazine 1,1-dioxide]
5.9	4.5	COC[C@H]1C[C@@H]2[C@](c3cc(Oc4ncncc4F)ccc3F)(CO1)NC(=N)N(C)S2(=O)=O [Example 11, (4aS,7R,8aR)-4a-(2-fluoro-5-((5-fluoropyrimidin-4-yl)oxy)phenyl)-3-imino-7-(methoxymethyl)-2-methyloctahydropyrano[3,4-e][1,2,4]thiadiazine 1,1-dioxide]
20	18	COC[C@H]1C[C@@H]2[C@](c3cc(Oc4ncc(F)cc4F)ccc3F)(CO1)NC(=N)N(C)S2(=O)=O [Example 12, (4aS,7R,8aR)-4a-(5-((3,5-difluoropyridin-2-yl)oxy)-2-fluorophenyl)-3-imino-7-(methoxymethyl)-2-methyloctahydropyrano[3,4-e][1,2,4]thiadiazine 1,1-dioxide]
4.3	6.9	COC[C@H]1C[C@@H]2[C@](c3cc(Oc4cccc(C#N)c4)ccc3F)(CO1)NC(=N)N(C)S2(=O)=O [Example 17, 3-(4-fluoro-3-((4aS,7R,8aR)-3-imino-7-(methoxymethyl)-2-methyl-1,1-dioxidooctahydropyrano[3,4-e][1,2,4]thiadiazin-4a-yl)phenoxy)benzonitrile]
1.9	3.4	COC[C@H]1C[C@@H]2[C@](c3cc(Oc4cc(C#N)ccn4)ccc3F)(CO1)NC(=N)N(C)S2(=O)=O [Example 10, 2-(4-fluoro-3-((4aS,7R,8aR)-3-imino-7-(methoxymethyl)-2-methyl-1,1-dioxidooctahydropyrano[3,4-e][1,2,4]thiadiazin-4a-yl)phenoxy)isonicotinonitrile]
203	89	COC[C@H]1C[C@@H]2[C@](c3cc(Oc4cnccc4Cl)ccc3F)(CO1)NC(=N)N(C)S2(=O)=O [Example 19, (4aS,7R,8aR)-4a-(5-((4-chloropyridin-3-yl)oxy)-2-fluorophenyl)-3-imino-7-(methoxymethyl)-2-methyloctahydropyrano[3,4-e][1,2,4]thiadiazine 1,1-dioxide]

Reference: patent US10604534B2, “C5-C6-oxacyclic fused iminothiadiazine dioxide compounds bearing an ether linker as BACE inhibitors, compositions, and their use” (Merck Sharp & Dohme Corp., priority 2016, dated 2020)
